From ChEMBL document CHEMBL2429726, “Gamma secretase modulators” (ACS Med Chem Lett, 2013) come the findings set out here.

Usually IC50 stands for the concentration that gives 50% inhibition.

One test concerns Rattus norvegicus. Nature of the test: Antialzheimer activity in CD rat assessed as reduction of amyloid beta42 level in CSF at 30 mg/kg, po after 3 hrs relative to control. The test is classed as functional. Details: scale not given: the % may be the effect or the level left.
A further test concerns the target Gamma-secretase. As to the kind of experiment: Inhibition of gamma secretase-mediated amyloid beta42 production in HEK293 cells expressing APP after 5 hrs by sandwich immunoassay. Format: cell-based, Homo sapiens.

Turning to `COc1cc(-c2noc3c2CCCC3NCc2cc(F)cc(F)c2)ccc1-n1cnc(C)c1` (stereo unspecified), the Activity in the test on Rattus norvegicus worked out at 20%. This molecule registered a 50% inhibitory concentration (IC50) against Gamma-secretase of 29 nM.
Taken in the same sequence, the figures for `COc1cc(-c2noc3c2CCCC3Nc2ccc(F)cc2)ccc1-n1cnc(C)c1` (stereo unspecified) were 58% and 39 nM.
With `COc1cc(-c2noc3c2CCCC3(O)c2cc(F)cc(F)c2)ccc1-n1cnc(C)c1` (stereo unspecified), in the test on Rattus norvegicus, the Activity is 20%. For the same molecule, half-maximal inhibition against Gamma-secretase (IC50) was put at 190 nM.
